# Target: T1, mouse GHR (Mus musculus, UniProt P16882)
# T1 construct: the mouse L fibroblasts express high levels of mouse GHR; host or cells: mouse L fibroblasts
# T1 sequence (P16882 25-650): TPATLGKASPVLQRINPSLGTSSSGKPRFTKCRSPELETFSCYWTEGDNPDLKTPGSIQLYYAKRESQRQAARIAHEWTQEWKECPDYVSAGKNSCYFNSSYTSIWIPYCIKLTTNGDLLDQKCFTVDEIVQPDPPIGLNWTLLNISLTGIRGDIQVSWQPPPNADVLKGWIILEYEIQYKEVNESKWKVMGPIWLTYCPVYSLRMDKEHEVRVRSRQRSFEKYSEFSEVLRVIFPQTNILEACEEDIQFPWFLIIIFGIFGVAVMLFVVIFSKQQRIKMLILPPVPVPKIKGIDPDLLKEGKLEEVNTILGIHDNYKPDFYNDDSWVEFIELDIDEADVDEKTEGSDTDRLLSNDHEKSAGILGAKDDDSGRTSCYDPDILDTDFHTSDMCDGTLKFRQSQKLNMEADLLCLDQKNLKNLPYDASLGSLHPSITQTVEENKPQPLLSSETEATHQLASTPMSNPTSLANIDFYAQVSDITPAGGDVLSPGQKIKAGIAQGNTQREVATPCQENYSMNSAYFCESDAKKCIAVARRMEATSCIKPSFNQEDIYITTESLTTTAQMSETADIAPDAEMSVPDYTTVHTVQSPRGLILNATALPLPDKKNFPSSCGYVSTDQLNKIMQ
# Experiment: hGH-mediated pSTAT5 in L (mouse fibroblast) cells, Western blot
# Assay type: cell-based
# Details: 200 nM S1H with 2.5 nM hGH, 20 min, Western blot densitometry, n = 3
# Protocol: SK-MEL-28, MALME-3M, and T84 cells were grown and maintained in Eagle's Minimal Essential Medium. IM9 and L cells were grown in RPMI-1640 media and Dulbecco's modified Eagle's medium, respectively. All growth media was supplemented with 10% fetal bovine serum and 1× antibiotic-antimycotic […] solution. Cells were grown at 37 °C under a 5% CO2 atmosphere in a humidified incubator, and growth media was replaced every 48 h during incubation. No hGH was present in or added to the growth media unless specifically indicated. […]
# Following treatment, the cells were harvested at the indicated time points, and the total protein was extracted. […] Sample protein concentration was quantified using a Bradford assay with bovine serum albumin as the protein standard. Absorbance at 595 nm was measured using a Spectramax 250 multimode plate reader (Molecular Devices) and processed using SoftmaxPro v4.7.1 software.
# Cytosolic fractions from treated cells were thawed on ice, and 80 μg protein was loaded onto polyacrylamide gels for separation by SDS-PAGE. […] Chemiluminescence signals were detected using a GelDoc (BioRad) fluorescence imager. […] Percent inhibition was then measured by subtracting the pSTAT5 band intensity in each lane from the pSTAT5 band intensity of hGH-treated samples. […]
compound,measurement,value
CC[C@H](C)[C@H](NC(=O)[C@H](Cc1ccc(O)cc1)NC(C)=O)C(=O)N1CCC[C@H]1C(=O)N[C@@H](CCCCN)C(=O)N[C@@H](CCC(=O)O)C(=O)N[C@@H](CCC(N)=O)C(=O)N[C@@H](CCCCN)C(=O)N[C@@H](Cc1ccc(O)cc1)C(=O)N[C@@H](CO)C(=O)N[C@@H](Cc1ccccc1)C(=O)N[C@@H](CC(C)C)C(=O)N[C@@H](CCC(N)=O)C(=O)N[C@@H](CC(N)=O)C(=O)N1CCC[C@H]1C(=O)N[C@@H](CCC(N)=O)C(=O)N[C@H](C(N)=O)[C@@H](C)O [S1H],suppression of hGH-mediated pSTAT5,36%

# Source: paper PMC8086144, “A novel peptide antagonist of the human growth hormone receptor” (The Journal of Biological Chemistry, 2021)
